Measurements as given in ChEMBL document CHEMBL3217423, “Binding of 9-O-(-amino) alkyl ether analogues of the plant alkaloid berberine to poly(A): insights into self-structure induction” (Medchemcomm, 2011).
The source made the active and inactive calls. The rule behind the calls is not given here.

Experiments:
[1] = Binding affinity to poly(A) tail mRNA (unknown origin) assessed as induction of self-structure formation by circular dichroic spectroscopy
[2] = Binding affinity to poly(A) tail mRNA (unknown origin) assessed as melting temperature of poly(A) self-structure by UV absorption/CD melting analysis
[3] = Binding affinity to poly(A) tail mRNA (unknown origin) assessed as induction of self-structure formation by circular dichroism analysis
[4] = Binding affinity to poly(A) tail mRNA (unknown origin) assessed as association constant by isothermal titration calorimetry relative to berberine
[5] = Binding affinity to poly(A) tail mRNA (unknown origin) assessed as apparent binding constant by absorption spectroscopy relative to berberine

Activity [1] | Tm [2] [°C] | Activity [3] | Ratio [4] | Ratio [5] | Structure (SMILES)
Active | 58 | Active |  |  | COc1ccc2cc3[n+](cc2c1OC)CCc1cc2c(cc1-3)OCO2 [BERBERINE]
Active | 59.5 | Active | 10 | 20 | COc1ccc2cc3[n+](cc2c1OCCCCCCN)CCc1cc2c(cc1-3)OCO2
Active | 58 | Active |  |  | COc1ccc2cc3[n+](cc2c1OCCCCN)CCc1cc2c(cc1-3)OCO2
 | 59 |  | 3 |  | COc1ccc2cc3[n+](cc2c1OCCN)CCc1cc2c(cc1-3)OCO2
